Columns and labels:
[1] = target: CDK2/CyclinE (Homo sapiens, UniProt P24941); experiment: CDK2/CyclinE Flashplate assay, 96-well format, biotinylated-Rb peptide substrate; format: biochemical
Experimental: This is a CDK2/CyclinE kinase assay in a 96-well Streptavidin-coated Flashplate with a biotinylated-Rb peptide substrate.
Each point is tested in duplicate
Biotinylated-Rb: Biotin-[…]-OH
• 1. Prepare substrate: 1 mg/ml solution made fresh in PBS. • 2. Add 4 μg per well to the Flashplate. • 3. Incubate for 2 hours at RT. • 4. From 10 mM inhibitor stocks in DMSO, make 1 mM, 300 μM, 100 μM, 30 μM and 10 μM series of dilution in DMSO. • 5. Was the Flashplate 3 times with 300 μl PBS to remove unbound peptide substrate. • 6. Add the CDK2/CyclinE kinase: 200 ng per well, in a volume of 90 μl in kinase buffer (except for “no enzyme” control wells). • 7. Add 1 μl per well of inhibitor to test 10 μM, 3 μM, 1 μM, 0.3 μM and 0.1 μM in final concentration per 100 μl in each well. • 8. Shake gently the Flashplate 1 minute. • 9. Incubate 30 minutes on wet ice. • 10. Initiate the reaction with 10 μl kinase buffer containing 1 μM final cold ATP and 1 μCi final ^33P-ATP per well. • 11. Shake gently the Flashplate 1 minute. • 12. Incubate 45 minutes at RT (no shaking). • 13. Wash the Flashplate 3 times with 300 μl PBS
14. Count to detect the incorporation of ^33P-ATP by the kinase to the Rb phosphorylation site.

[2] = target: CDK4/CyclinD1 (Homo sapiens, UniProt P11802); experiment: CDK4/CyclinD1 Flashplate assay, 96-well format, biotinylated-Rb peptide substrate; format: biochemical
Outline: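 Biotinylated Rb peptide bound to streptavidin Flashplate; CDK4/CyclinD1 (70 ng/well) preincubated 30 min on ice with compound at 10, 3, 1, 0.3 and 0.1 μM final. Reaction with 1 μM cold ATP plus 33P-ATP for 45 min at RT; incorporated 33P counted, duplicates.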

Sequence of CDK4/CyclinD1 (P11802 whole entry, species assumed): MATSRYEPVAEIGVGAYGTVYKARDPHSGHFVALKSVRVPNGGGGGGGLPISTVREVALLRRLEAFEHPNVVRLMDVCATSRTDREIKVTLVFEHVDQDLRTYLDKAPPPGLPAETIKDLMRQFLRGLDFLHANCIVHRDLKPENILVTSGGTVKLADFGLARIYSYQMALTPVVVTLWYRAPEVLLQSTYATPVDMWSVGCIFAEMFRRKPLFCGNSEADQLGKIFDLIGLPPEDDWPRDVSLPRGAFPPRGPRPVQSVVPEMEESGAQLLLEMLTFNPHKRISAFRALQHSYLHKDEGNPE
Sequence of CDK4/CyclinD1 (P24385 whole entry partner, species assumed): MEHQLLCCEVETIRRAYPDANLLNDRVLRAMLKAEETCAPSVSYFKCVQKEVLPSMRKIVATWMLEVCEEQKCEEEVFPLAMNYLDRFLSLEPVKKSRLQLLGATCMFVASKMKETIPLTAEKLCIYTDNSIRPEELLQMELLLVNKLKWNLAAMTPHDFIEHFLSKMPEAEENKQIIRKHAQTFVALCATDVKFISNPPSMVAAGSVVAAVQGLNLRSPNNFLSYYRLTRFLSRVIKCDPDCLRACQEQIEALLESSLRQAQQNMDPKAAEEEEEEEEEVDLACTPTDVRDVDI

SMILES | IC50 [1] [nM] | IC50 [2] [nM] | inhibition at 10 µM [2] [%]
CNC(=O)Nc1nc2cc(OS(=O)(=O)c3ccc(-n4ccnc4)cc3)ccc2[nH]1 [Example 30, N-[5-(4-[imidazolyl]-phenylsulfonyloxy)-1H-benzimidazole-2-yl]-methylurea] | 900 | 1800 | –
CN(C)C(=O)Nc1nc2cc(OS(=O)(=O)c3ccc(NC4CCCC4)cc3)ccc2[nH]1 [Example 32, N-[5-(4-cyclopentylaminophenylsulfonyloxy)-1H-benzimidazole-2-yl]-dimethylurea] | 1100 | > 5000 | –
O=C(Nc1nc2cc(OS(=O)(=O)c3ccc(-n4ccnc4)cc3)ccc2[nH]1)Nc1ccccc1F [Example 36, 4-Imidazol-1-yl-benzenesulfonic acid 2-[3-(2-fluoro-phenyl)-ureido]-1H-benzoimidazol-5-yl ester] | 530 | 770 | –
O=C(Nc1nc2cc(OS(=O)(=O)c3ccc(NC4CCCC4)cc3)ccc2[nH]1)Nc1ccccc1F [Example 37, 4-Cyclopentylamino-benzenesulfonic acid 2-[3-(2-fluoro-phenyl)-ureido]-1H-benzoimidazol-5-yl ester] | 450 | 570 | –
COc1cccc(NC(=O)Nc2nc3cc(OS(=O)(=O)c4ccc(NC5CCCC5)cc4)ccc3[nH]2)c1 [Example 38, 4-Cyclopentylamino-benzenesulfonic acid 2-[3-(3-methoxy-phenyl)-ureido]-1H-benzoimidazol-5-yl ester] | 4300 | 1250 | –
COc1ccc(NC(=O)Nc2nc3cc(OS(=O)(=O)c4ccc(NC5CCCC5)cc4)ccc3[nH]2)cc1 [Example 39, 4-Cyclopentylamino-benzenesulfonic acid 2-[3-(4-methoxy-phenyl)-ureido]-1H-benzoimidazol-5-yl ester] | 290 | 1620 | –
O=C(Nc1ccc(Cl)cc1)Nc1nc2cc(OS(=O)(=O)c3ccc(NC4CCCC4)cc3)ccc2[nH]1 [Example 40, 4-Cyclopentylamino-benzenesulfonic acid 2-[3-(4-chloro-phenyl)-ureido]-1H-benzoimidazol-5-yl ester] | 1090 | 3710 | –
O=C(Nc1cccc(Cl)c1)Nc1nc2cc(OS(=O)(=O)c3ccc(NC4CCCC4)cc3)ccc2[nH]1 [Example 42, 4-Cyclopentylamino-benzenesulfonic acid 2-[3-(3-chloro-phenyl)-ureido]-1H-benzoimidazol-5-yl ester] | 910 | – | 84
CC(C)CNC(=O)Nc1nc2cc(OS(=O)(=O)c3ccc(NC4CCCC4)cc3)ccc2[nH]1 [Example 43, 4-Cyclopentylamino-benzenesulfonic acid 2-(3-isobutyl-ureido)-1H-benzoimidazol-5-yl ester] | 200 | 1900 | –
O=C(NCCS(=O)(=O)O)Nc1nc2cc(OS(=O)(=O)c3ccc(-n4ccnc4)cc3)ccc2[nH]1 [Example 47, 4-Imidazol-1-yl-benzenesulfonic acid 2-[3-(2-sulfo-ethyl)-ureido]-1H-benzoimidazol-5-yl ester] | 160 | 800 | –
CN(C)c1ccc(NC(=O)Nc2nc3cc(OS(=O)(=O)c4ccc(NC5CCCC5)cc4)ccc3[nH]2)cc1 [Example 49, 4-Cyclopentylamino-benzenesulfonic acid 2-[3-(4-dimethylamino-phenyl)-ureido]-1H-benzoimidazol-5-yl ester] | 400 | – | 88
CC(C)(C)NC(=O)Nc1nc2cc(OS(=O)(=O)c3ccc(NC4CCCC4)cc3)ccc2[nH]1 [Example 53, 4-Cyclopentylamino-benzenesulfonic acid 2-(3-tert-butyl-ureido)-1H-benzoimidazol-5-yl ester] | 800 | – | 83
O=C(Nc1ccccc1)Nc1nc2cc(OS(=O)(=O)c3ccc(-n4ccnc4)cc3)ccc2[nH]1 [Example 57-a, 4-Imidazol-1-yl-benzenesulfonic acid 2-(3-phenyl-ureido)-1H-benzoimidazol-5-yl ester] | 240 | 1000 | –
O=C(Nc1nc2cc(OS(=O)(=O)c3ccc(-n4ccnc4)cc3)ccc2[nH]1)NC1CCCCC1 [Example 57-b, 4-Imidazol-1-yl-benzenesulfonic acid 2-(3-cyclohexyl-ureido)-1H-benzoimidazol-5-yl ester] | 1900 | – | 51
O=C(Nc1nc2cc(OS(=O)(=O)c3ccc(-n4ccnc4)cc3)ccc2[nH]1)NC1CCCC1 [Example 57-c, 4-Imidazol-1-yl-benzenesulfonic acid 2-(3-cyclopentyl-ureido)-1H-benzoimidazol-5-yl ester] | 600 | – | 60
O=C(Nc1cccc(F)c1)Nc1nc2cc(OS(=O)(=O)c3ccc(-n4ccnc4)cc3)ccc2[nH]1 [Example 57-d, 4-Imidazol-1-yl-benzenesulfonic acid 2-[3-(3-fluoro-phenyl)-ureido]-1H-benzoimidazol-5-yl ester] | 500 | – | 70
O=C(NCCO)Nc1nc2cc(OS(=O)(=O)c3ccc(-n4ccnc4)cc3)ccc2[nH]1 [Example 57-e, 4-Imidazol-1-yl-benzenesulfonic acid 2-[3-(2-hydroxy-ethyl)-ureido]-1H-benzoimidazol-5-yl ester] | 300 | – | 90

Stronger by IC50 [1], values ahead:

IC50 [1] [nM] | IC50 [2] [nM] | inhibition at 10 µM [2] [%] | SMILES
100 | 500 | – | CNC(=O)Nc1nc2cc(OS(=O)(=O)c3ccc(NC4CCCC4)cc3)ccc2[nH]1 [Example 31, N-[5-(4-cyclopentylaminophenylsulfonyloxy)-1H-benzimidazole-2-yl]-methylurea]
60 | 640 | – | O=C(Nc1nc2cc(OS(=O)(=O)c3ccc(NC4CCCC4)cc3)ccc2[nH]1)NC1CC1 [Example 33, 4-Cyclopentylamino-benzenesulfonic acid 2-(3-cyclopropyl-ureido)-1H-benzoimidazol-5-yl ester]
120 | 1180 | – | CC(C)NC(=O)Nc1nc2cc(OS(=O)(=O)c3ccc(NC4CCCC4)cc3)ccc2[nH]1 [Example 34, 4-Cyclopentylamino-benzenesulfonic acid 2-(3-isopropyl-ureido)-1H-benzoimidazol-5-yl ester]
120 | 1100 | – | CCCCNC(=O)Nc1nc2cc(OS(=O)(=O)c3ccc(NC4CCCC4)cc3)ccc2[nH]1 [Example 35, 4-Cyclopentylamino-benzenesulfonic acid 2-(3-butyl-ureido)-1H-benzoimidazol-5-yl ester]
60 | 2800 | – | O=C(NCc1cccc(F)c1)Nc1nc2cc(OS(=O)(=O)c3ccc(NC4CCCC4)cc3)ccc2[nH]1 [Example 41, 4-Cyclopentylamino-benzenesulfonic acid 2-[3-(3-fluoro-benzyl)-ureido]-1H-benzoimidazol-5-yl ester]
60 | 600 | – | CCNC(=O)Nc1nc2cc(OS(=O)(=O)c3ccc(NC4CCCC4)cc3)ccc2[nH]1 [Example 45, 4-Cyclopentylamino-benzenesulfonic acid 2-(3-ethyl-ureido)-1H-benzoimidazol-5-yl ester]
60 | 12 | – | O=C(O)CNC(=O)Nc1nc2cc(OS(=O)(=O)c3ccc(NC4CCCC4)cc3)ccc2[nH]1 [Example 46, {3-[5-(4-Cyclopentylamino-benzenesulfonyloxy)-1H-benzoimidazol-2-yl]-ureido}-acetic acid]
40 | 300 | – | COCCNC(=O)Nc1nc2cc(OS(=O)(=O)c3ccc(NC4CCCC4)cc3)ccc2[nH]1 [Example 48, 4-Cyclopentylamino-benzenesulfonic acid 2-[3-(2-methoxy-ethyl)-ureido]-1H-benzoimidazol-5-yl ester]
40 | 300 | – | O=C(NCc1ccccn1)Nc1nc2cc(OS(=O)(=O)c3ccc(NC4CCCC4)cc3)ccc2[nH]1 [Example 50, 4-Cyclopentylamino-benzenesulfonic acid 2-(3-pyridin-2-ylmethyl-ureido)-1H-benzoimidazol-5-yl ester]
140 | 800 | – | O=C(Nc1nc2cc(OS(=O)(=O)c3ccc(NC4CCCC4)cc3)ccc2[nH]1)NC1CCC1 [Example 51, 4-Cyclopentylamino-benzenesulfonic acid 2-(3-cyclobutyl-ureido)-1H-benzoimidazol-5-yl ester]
80 | 1000 | – | O=C(NCc1ccncc1)Nc1nc2cc(OS(=O)(=O)c3ccc(NC4CCCC4)cc3)ccc2[nH]1 [Example 52, 4-Cyclopentylamino-benzenesulfonic acid 2-(3-pyridin-4-ylmethyl-ureido)-1H-benzoimidazol-5-yl ester]
5 | 500 | – | CNC(=O)Nc1nc2cc(OS(=O)(=O)c3ccc(NCC4CCCO4)cc3)ccc2[nH]1 (stereo not shown) [Example 54, 4-[(Tetrahydro-furan-2-ylmethyl)-amino]-benzenesulfonic acid 2-(3-methyl-ureido)-1H-benzoimidazol-5-yl ester]
